Data reported in US7749967B2, “Peptides of a melanoma antigen and their use in diagnostic, prophylactic, and therapeutic methods” (The United States of America as represented by the …, priority 2001, dated 2010).

Tested on: gp100170-190-specific T cell clone (HLA-DRβ1*0701 restricted)
Assay: IFN-γ release by gp100-specific CD4+ T cell clones co-cultured with EBV-B cells pulsed with peptide or protein (ELISA)
Format: cell-based, human
Settings: for Gp100 Peptide Identification (IFN-γ; pg/ml) 10 μM: peptide pulsed at 10 μM on EBV-B cells; for Gp100 Peptide Identification (IFN-γ; pg/ml) 10 μM / Gp100 Peptide Identification (IFN-γ; pg/ml) 50 μM: 24 h co-culture with T cell clone; for Gp100 Peptide Identification (IFN-γ; pg/ml) 50 μM: peptide pulsed at 50 μM on EBV-B cells
Description: The reactivity of nine representative positive clones is presented in FIG. 1A along with 4 representative negative wells (neg1 to neg4). Eight of the 46 positive clones were expanded and further characterized. […] To further characterize the reactivity, some of the clones were co-cultured with autologous B cells pulsed with a bacterially produced gp100 protein. […] In order to identify the MHC restriction element, antibodies known to bind and block the presentation by defined MHC molecules were used. Recognition by clones 6 and 8 of target cells pulsed with the gp100 protein was inhibited when using blocking antibodies against MHC class II and HLA-DR but the recognition was unchanged when using a blocking MHC class I antibody. […] By using HLA-DR matched B cells, the restriction element was identified as HLA-DRβ1*0701 (patient A is HLA-DRβ1*0701 and *1601; FIG. 2).
To find the epitope recognized, an overlapping gp100 peptide library consisting of 68 peptides of 17 or 21 residues overlapping by 10-12 amino acids was prepared. The autologous EBV-B cells were pulsed with the peptide library and used as targets in a T cell recognition assay using three different T cell clones.
Finally, several peptides were synthesized in order to define an optimal HLA-DRβ1*0701 epitope (Rammensee, H. G. Immunogenetics 41:178-228, 1995; Chicz et al. J. Exp. Med. 178:27-47, 1993). […] Finally, substitutions were made at position 5 of the gp100174-394 peptide presuming that this is position 1 according to the defined motif for HLA-DRβ1*0701 (SYFPEITHI web site, http://syfpeithi.de/). However, none of the peptides were better recognized when pulsed at 10 μM or 1 μM compared to the wild type gp100174-394 peptide.
The gp100 peptide library consisted of 68 peptides of 17 to 21 residues overlapping by 10 to 12 amino acids. The peptides were synthesized by solid phase FMOC methodology as previously described (Parkhurst et al. J. Immunol. 157:2539-2548, 1996). A control peptide derived from the Ig kappa chain known to bind to HLA-DRβ1*0701 was also prepared (Chicz et al. J. Exp. Med. 178:27-47, 1993). Recombinant gp100 protein was made and purified as previously described Touloukian et al. J. Immunol. 164:3535-3542, 2000). Recombinant NY-ESO-1 protein is another tumor antigen (Chen, Y T and L J Old. Cancer J. Sci. Am. 5:16-17, 1999) used as negative control and was made and purified as previously described (Zeng et al. J. Immunol. 165:1153-1159, 2000). EBV-B cells (1×10^5) were pulsed with gp100-purified protein or peptides for 18 hours in 96 well flat-bottom plates and T cells were added directly to the pulsed-B cells for a 24 hours recognition assay. In some experiments, EBV-B cells (5×10^5) were pulsed in 48 well plates for 18 hours and cells were washed twice with PBS. T cells were then co-cultured with the pulsed EBV-B cells in 96 well flat-bottom plates for 24 hours. Supernatants were harvested and human IFN-γ was assayed by ELISA using a commercially available kit (R&D Inc.).
Fifty to one hundred thousand responder cells and 4×10^4-10^5 stimulator cells were mixed in 300 ul of AIM-V medium containing […] IL-2 per well in a 96 flat-well microplate. Target cells (1×10^5) were incubated with 1×10^5 specific T cells in 250 μl of T cell medium (AIM-V-based medium) in 96 well flat-bottom plates. Supernatants were harvested after 24 h and human IFN-γ was assayed by ELISA using a commercially available kit (R&D, Inc.; Minneapolis, Minn.).

Sequence	Gp100 Peptide Identification (IFN-γ; pg/ml) 10 μM	Gp100 Peptide Identification (IFN-γ; pg/ml) 50 μM	recognition in overlapping gp100 peptide library screen (68 peptides, all at 100 μM, autologous EBV-B cells, one of three T cell clones, FIG. 3A)	peptide concentration below which recognition was undetectable (titration) (gp100170-190-specific T cell clone, peptide pulsed on EBV-B cells, FIG. 3B)
GTGRAMLGTHTMEVTVYH [SEQ ID NO:10]	18,770 pg/ml	>25,000 pg/ml	–	–
GTGRAMLGTHTMEVTVYHRRG [SEQ ID NO:9]	22,910 pg/ml	>25,000 pg/ml	–	–
IGTGRAMLGTHTMEVTVYH [SEQ ID NO:11]	17,590 pg/ml	>25,000 pg/ml	–	–
IGTGRAMLGTHTMEVTVYHRR [SEQ ID NO:4]	17,050 pg/ml	>25,000 pg/ml	–	–
LSIGTGRAMLGTHTMEVTVYH [SEQ ID NO:3]	21,000 pg/ml	>25,000 pg/ml	specifically recognized	4 to 10 µM
MLGTHTMEVTVYHRRGSRSYV [SEQ ID NO:16]	52 pg/mL	5,940 pg/ml	–	–
PVSGLSIGTGRAMLGTHTMEV [SEQ ID NO:20]	<8 pg/mL	19 pg/mL	–	–
RAMLGTHTMEVTVYHRRGSRS [SEQ ID NO:15]	912 pg/mL	15,230 pg/ml	–	–
SGLSIGTGRAMLGTHTMEVTV [SEQ ID NO:14]	1,655 pg/ml	4,200 pg/ml	–	–
SIGTGRAMLGTHTMEVTVYH [SEQ ID NO:12]	20,710 pg/ml	>25,000 pg/ml	–	–
SIGTGRAMLGTHTMEVTVYHR [SEQ ID NO:13]	12,210 pg/ml	>25,000 pg/ml	–	–
TGRAFLGTHTMEVTVYHRRGS [SEQ ID NO:17]	19,390 pg/ml	>25,000 pg/ml	–	–
TGRALLGTHTMEVTVYHRRGS [SEQ ID NO:18]	23,140 pg/ml	>25,000 pg/ml	–	–
TGRAMLGTHTMEVTVYH [SEQ ID NO:2]	14,010 pg/ml	>25,000 pg/ml	–	–
TGRAMLGTHTMEVTVYHR [SEQ ID NO:6]	11,100 pg/ml	>25,000 pg/ml	–	–
TGRAMLGTHTMEVTVYHRR [SEQ ID NO:7]	11,550 pg/ml	>25,000 pg/ml	–	–
TGRAMLGTHTMEVTVYHRRG [SEQ ID NO:8]	17,910 pg/ml	>25,000 pg/ml	–	–
TGRAMLGTHTMEVTVYHRRGS [SEQ ID NO:5]	17,140 pg/ml	>25,000 pg/ml	–	–
TGRAYLGTHTMEVTVYHRRGS [SEQ ID NO:19]	11,640 pg/ml	>25,000 pg/ml	–	–
